Test results: the supplement of paper PMC8498969

How the values were obtained:
[1] = test system: HEK293; test: IC50 for inhibition of ZIKV NS1 production
Procedure: (§1)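 HEK293 cells in 1536-well plates were pre-treated with compound for 1 h, infected with ZIKV (MOI 1) for 24 h, and NS1 antigen (intra- plus extracellular) was measured by TR-FRET. Confirmation used 11-point 1:3 dilutions, and IC50 and maximal inhibition were fitted in GraphPad Prism.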

[2] = test system: HEK293; test: cytotoxicity IC50 (ATP content, uninfected cells); higher = less cytotoxic; details: infection: none
[3] = test system: HEK293; test: maximal inhibition of ZIKV NS1 production (% inhibition); higher = stronger antiviral effect
Procedure: as §1

Row | SMILES | IC50 [1] | cytotoxicity IC50 [2] | maximal inhibition [3]
1 | CC[C@@H]1C(=O)N(C)c2cnc(Nc3ccc(C(=O)N[C@H]4CC[C@H](N5CCN(CC6CC6)CC5)CC4)cc3OC)nc2N1C(C)C | 0.065 µM | > 100 µM | 101
2 | COc1c(OCCCN2CCOCC2)ccc2c3n(c(=NC(=O)c4cnc(N)nc4)nc12)CCN3 | 2.1 µM | 22 µM | 71
3 | CCOC(=O)C1(c2ccccc2)CCN(CCC(C#N)(c2ccccc2)c2ccccc2)CC1 | 6 µM | 9.2 µM | 105
4 | O=C1NCCN1CCN1CCC(c2cn(-c3ccc(F)cc3)c3ccc(Cl)cc23)CC1 | 7.4 µM | 6.5 µM | 99
5 | O=C1c2c(O)ccc(O)c2C(=O)c2c(NCCNCCO)ccc(NCCNCCO)c21 | 0.23 µM | 50 µM | 100
6 | CO[C@H]1C(=O)[C@]2(C)[C@@H](OC)C[C@H]3OC[C@@]3(OC(C)=O)[C@H]2[C@H](OC(=O)c2ccccc2)[C@]2(O)C[C@H](OC(=O)[C@H](O)[C@@H](NC(=O)OC(C)(C)C)c3ccccc3)C(C)=C1C2(C)C | 1.8 µM | > 100 µM | 68
7 | Nc1ncn([C@@H]2O[C@H](CO)[C@@H](O)[C@H]2O)c(=O)n1 | 44 µM | > 100 µM | 58
8 | CC[C@]1(O)C[C@@H]2CN(CCc3c([nH]c4ccccc34)[C@@](C(=O)OC)(c3cc4c(cc3OC)N(C)[C@H]3[C@@](O)(C(=O)OC)[C@H](OC(C)=O)[C@]5(CC)C=CCN6CC[C@]43[C@@H]65)C2)C1 | 5.6 µM | > 100 µM | 73
9 | CN1CCN(Cc2ccc(NC(=O)Nc3ccc(Oc4cc(NC(=O)C5CC5)ncn4)cc3)cc2C(F)(F)F)CC1 | 2.4 µM | > 100 µM | 104
10 | CC(=O)O[C@@]12CO[C@@H]1C[C@H](O)[C@@]1(C)C(=O)[C@H](O)C3=C(C)[C@@H](OC(=O)[C@H](O)[C@@H](NC(=O)OC(C)(C)C)c4ccccc4)C[C@@](O)([C@@H](OC(=O)c4ccccc4)[C@H]21)C3(C)C | 50 µM | > 100 µM | 66
11 | CC[C@H]1CN2CCc3cc(OC)c(OC)cc3[C@@H]2C[C@@H]1C[C@H]1NCCc2cc(OC)c(OC)cc21 | 0.11 µM | > 100 µM | 103
12 | COc1ccc(OC)c(-c2nnc3ccc(-c4ccc(OC)c(O[C@@H]5CCOC5)c4)nn23)c1 | 40 µM | > 100 µM | 42
13 | O=C(Nc1ncc(-c2cc(C(F)F)nn2-c2c(Cl)cccc2Cl)s1)C1CC1 | 1.2 µM | > 100 µM | 92
14 | COc1cccc2c(NCc3ccccc3)nc(-n3c(N)nc4ccccc43)nc12 | 50 µM | 30 µM | 100
15 | O=C(Nc1ccc([N+](=O)[O-])cc1Cl)c1cc(Cl)ccc1O | 8.3 µM | 3.3 µM | 102
16 | O=C1C(Cl)=C(NCCN2CCOCC2)C(=O)c2ncccc21 | 16 µM | 20 µM | 104
17 | Oc1cccc(-c2nc(N3CCOCC3)c3oc4ncccc4c3n2)c1 | 1.6 µM | 0.94 µM | 92
18 | Cn1c(=O)c(-c2c(Cl)cccc2Cl)cc2cnc(Nc3ccc(N4CCOCC4)cc3)nc21 | 2.1 µM | 6 µM | 102
19 | O=C(O)c1ccc2cc(-c3ccc(O)c(C45CC6CC(CC(C6)C4)C5)c3)ccc2c1 | 1.7 µM | 45 µM | 97
20 | CC(C)c1nn(-c2c(Cl)cccc2Cl)c2nc(Cc3ccc(OCCO)cc3)[nH]c(=O)c12 | 0.27 µM | > 100 µM | 91
21 | Cn1c2ccccc2c2c3c(c4c5ccccc5n(CCC#N)c4c21)CNC3=O | 0.94 µM | 20 µM | 82
22 | CCn1nnc2c(N3CCOCC3)nc(-c3ccc(NC(=O)Nc4ccc(C(=O)N5CCN(C)CC5)cc4)cc3)nc21 | 1.6 µM | 0.65 µM | 79
23 | CCOC(=O)N1CCN(/[N+]([O-])=N/Oc2ccc([N+](=O)[O-])cc2C#N)CC1 | 4.5 µM | > 100 µM | 74
24 | CC[C@]1(O)C[C@H]2CN(CCc3c([nH]c4ccccc34)[C@@](C(=O)OC)(c3cc4c(cc3OC)N(C=O)[C@H]3[C@@](O)(C(=O)OC)[C@H](OC(C)=O)[C@]5(CC)C=CCN6CC[C@]43[C@@H]65)C2)C1 | 0.16 µM | > 100 µM | 55
25 | C[C@@H]1O[C@@H](O[C@H]2C[C@@H](O)[C@]3(CO)[C@H]4[C@H](O)C[C@]5(C)[C@@H](C6=CC(=O)OC6)CC[C@]5(O)[C@@H]4CC[C@]3(O)C2)[C@H](O)[C@H](O)[C@H]1O | 0.17 µM | 0.19 µM | 102

Row | SMILES | IC50 [1] | cytotoxicity IC50 [2] | maximal inhibition [3]
26 | Cc1c2oc3c(C)ccc(C(=O)N[C@@H]4C(=O)N[C@H](C(C)C)C(=O)N5CCC[C@H]5C(=O)N(C)CC(=O)N(C)[C@@H](C(C)C)C(=O)O[C@@H]4C)c3nc-2c(C(=O)N[C@@H]2C(=O)N[C@H](C(C)C)C(=O)N3CCC[C@H]3C(=O)N(C)CC(=O)N(C)[C@@H](C(C)C)C(=O)O[C@@H]2C)c(N)c1=O | 0.35 µM | > 100 µM | 99
27 | Oc1c(Cl)cc(Cl)c2cccnc12 | 46 µM | 16 µM | 93
28 | OC[C@H](Cc1ccccc1)Nc1nc(Oc2ccc3c(c2)CCC3)nc2c1ncn2Cc1ccc(-c2ccccc2)cc1 | 7.8 µM | 90 µM | 100
29 | Cc1ccc(C(=O)N(CCCN)[C@@H](c2nc3cc(Cl)ccc3c(=O)n2Cc2ccccc2)C(C)C)cc1 | 0.067 µM | 37 µM | 98
30 | NC1(c2ccc(-c3nc4ccn5c(=O)[nH]nc5c4cc3-c3ccccc3)cc2)CCC1 | 23 µM | 4.4 µM | 103
31 | O=[N+]([O-])c1ccc2c(c1)S(=O)(=O)C=C2 | 11 µM | 7.2 µM | 103
32 | Oc1ccc(-c2ccc(-c3cc(Nc4cccc(CNC5CC5)c4)n[nH]3)cc2)c(O)c1 | 1.5 µM | 27 µM | 108
33 | Cc1ncc(-c2ccnc(Nc3ccc(S(C)(=O)=O)cc3)n2)n1C(C)C | 9.2 µM | > 100 µM | 99
34 | Nc1c2ccccc2nc2ccccc12 | 21 µM | 100 µM | 102
35 | Cc1nc2cnc3ccc(C#Cc4cccnc4)cc3c2n1-c1ccc(C(C)(C)C#N)cc1 | 1.4 µM | 10 µM | 102
36 | CC[n+]1c(/C=C/C=C2/N(C)c3ccccc3C2(C)C)sc2ccccc21 | 4 µM | 0.26 µM | 97
37 | CCCOc1ccc2[nH]c(NC(=O)OC)nc2c1 | 4.9 µM | 86 µM | 67
38 | CC(C)C[C@H](NC(=O)CNC(=O)c1cc(Cl)ccc1Cl)B(O)O | 0.23 µM | 2.1 µM | 102
39 | COCC[n+]1c2c(n(Cc3cnccn3)c1C)C(=O)c1ccccc1C2=O | 0.018 µM | 0.03 µM | 104
40 | O=C(NC1CCNCC1)c1n[nH]cc1NC(=O)c1c(Cl)cccc1Cl | 3.1 µM | 22 µM | 91
41 | O=c1[nH]nc(Sc2ncc([N+](=O)[O-])s2)n1-c1ccc2c(c1)OCCO2 | 8 µM | 12 µM | 97
42 | CCC1=C[C@@H]2CN(C1)Cc1c([nH]c3ccccc13)[C@@](C(=O)OC)(c1cc3c(cc1OC)N(C)[C@H]1[C@@](O)(C(=O)OC)[C@H](OC(C)=O)[C@]4(CC)C=CCN5CC[C@]31[C@@H]54)C2 | 0.27 µM | > 100 µM | 95
43 | CC(C)c1cnn2c(NCc3ccccc3)cc(N[C@@H](CO)[C@H](O)CO)nc12 | 1.2 µM | > 100 µM | 87
44 | CO/C1=C\C(C)=C\[C@@H](C)[C@@H](O)[C@@H](C)C/C(C)=C/C=C/[C@H](OC)[C@@H]([C@@H](C)[C@@H](O)[C@H](C)[C@@]2(O)C[C@@H](O)[C@H](C)[C@@H](C(C)C)O2)OC1=O | 5.3 µM | 80 µM | 101
45 | CC(=O)[C@]1(O)Cc2c(O)c3c(c(O)c2[C@@H](O[C@H]2C[C@H](N)[C@H](O)[C@H](C)O2)C1)C(=O)c1ccccc1C3=O | 0.17 µM | > 100 µM | 86
46 | COc1c(C)c2c(c(O)c1C/C=C(\C)CCC(=O)O)C(=O)OC2 | 0.54 µM | > 100 µM | 106
47 | Nc1nc(F)nc2c1ncn2[C@@H]1O[C@H](CO)[C@@H](O)[C@H]1O | 2.9 µM | 11 µM | 98
48 | COc1cc(NS(C)(=O)=O)ccc1Nc1c2ccccc2nc2ccccc12 | 1.4 µM | 70 µM | 105
49 | Cc1c(N)nc([C@H](CC(N)=O)NC[C@@H](N)C(N)=O)nc1C(=O)N[C@H](C(=O)N[C@@H](C)[C@H](O)[C@@H](C)C(=O)N[C@@H](C(=O)NCCc1nc(-c2nc(C(=O)NCCC[S+](C)C)cs2)cs1)[C@@H](C)O)C(O[C@H]1O[C@H](CO)[C@H](O)[C@@H](O)[C@H]1O[C@H]1O[C@H](CO)[C@@H](O)[C@H](OC(N)=O)[C@@H]1O)c1cnc[nH]1 (stereo not given in full) | 6.3 µM | > 100 µM | 103
50 | COc1cccc2c1C(=O)c1c(O)c3c(c(O)c1C2=O)C[C@@](O)(C(=O)CO)C[C@@H]3O[C@H]1C[C@H](N)[C@H](O[C@@H]2CCCCO2)[C@H](C)O1 | 5.6 µM | > 100 µM | 75
